In the NIST ThermoML archive (doi:10.1016/j.jct.2014.01.006):

Assays:
[1] = Molar enthalpy of transition or fusion; conditions: Crystal; Adiabatic calorimetry
[2] = molar heat capacity at saturation pressure; conditions: Vacuum adiabatic calorimetry

c1ccc(-c2cccc3ccccc23)cc1 [1-phenylnaphthalene]
Conditions	Molar enthalpy of transition or fusion [kcal/mol]
[1]	3.716

[2]
Conditions	molar heat capacity [J/K/mol]
4.666 K, Crystal	0.4324
5 K, Crystal	0.5238
5.509 K, Crystal	0.6901
6.425 K, Crystal	1.131
7.372 K, Crystal	1.671
8.352 K, Crystal	2.37
9.357 K, Crystal	3.243
10 K, Crystal	3.899
10.42 K, Crystal	4.348
11.58 K, Crystal	5.512
12.87 K, Crystal	7.134
14.3 K, Crystal	8.921
15.89 K, Crystal	11.19
17.68 K, Crystal	13.76
19.66 K, Crystal	16.7
20 K, Crystal	17.2
21.86 K, Crystal	20.01
24.3 K, Crystal	23.71
26.97 K, Crystal	27.69
29.93 K, Crystal	31.88
30 K, Crystal	31.97
33.23 K, Crystal	36.31
36.92 K, Crystal	40.94
40 K, Crystal	44.47
41.05 K, Crystal	45.63
45.65 K, Crystal	50.63
50 K, Crystal	54.82
50.77 K, Crystal	55.5
56.48 K, Crystal	60.59
57.01 K, Crystal	60.79
57.98 K, Crystal	61.8
60 K, Crystal	63.39
61.92 K, Crystal	65.08
63.69 K, Crystal	66.18
66.86 K, Crystal	68.59
70 K, Crystal	70.93
70.04 K, Crystal	71
71.83 K, Crystal	72.22
76.82 K, Crystal	75.66
77.08 K, Crystal	75.91
80 K, Crystal	77.87
81.77 K, Crystal	79.16
84.85 K, Crystal	81.07
86.7 K, Crystal	82.3
90 K, Crystal	84.45
92.7 K, Glass	86.97
93.5 K, Crystal	86.69
100 K, Crystal	90.82
102.16 K, Glass	93.03
102.86 K, Crystal	92.63
111.98 K, Glass	99.33
112.57 K, Crystal	98.86
120 K, Crystal	103.63
122.36 K, Crystal	105.15
122.48 K, Glass	106.16
132.22 K, Crystal	111.61
133.24 K, Glass	113.28
140 K, Crystal	116.81
142.62 K, Crystal	118.58
144.86 K, Glass	121.24
153.97 K, Crystal	126.35
158.22 K, Glass	130.67
160 K, Crystal	130.74
165.78 K, Crystal	135.02
172.31 K, Glass	140.99
177.53 K, Crystal	143.52
180 K, Crystal	145.34
183.8 K, Crystal	148.26
184.4 K, Glass	150.13
189.34 K, Crystal	152.49
193.62 K, Glass	157.14
195.08 K, Crystal	157.04
198.88 K, Glass	161.79
200 K, Crystal	160.73
201.24 K, Crystal	161.76
201.34 K, Glass	162.43
206.16 K, Crystal	165.72
212.82 K, Glass	180.93
217.01 K, Crystal	174.74
220 K, Crystal	177.08
224.64 K, Liquid	274.63
227.57 K, Crystal	183.38
230.27 K, Liquid	276.92
233.28 K, Liquid	278.09
238.35 K, Crystal	192.45
239.4 K, Liquid	280.79
240 K, Crystal	193.69
242.59 K, Liquid	282.18
249.84 K, Crystal	202.22
252.38 K, Liquid	286.68
252.84 K, Liquid	287
260 K, Crystal	210.67
261.66 K, Crystal	212.63
273.41 K, Crystal	223.08
280 K, Crystal	228.03
284.54 K, Liquid	303.16
285.16 K, Crystal	237.05
293.3 K, Liquid	308.04
297.47 K, Crystal	243.76
297.47 K, Liquid	310.36
298.15 K, Liquid	310.74
300 K, Liquid	311.8
304.21 K, Liquid	314.19
305.11 K, Liquid	314.67
305.83 K, Liquid	315.13
306.22 K, Liquid	315.36
314.2 K, Liquid	320
320 K, Liquid	323.37
321.38 K, Liquid	324.18
337.19 K, Liquid	333.49
340 K, Liquid	335.17
352.74 K, Liquid	342.77
360 K, Liquid	347.09
